Results published in PubChem BioAssay AID179 (DTP/NCI, 2004).
“And” between values parts separate entries of the source, which are not always exact repeats. Equal values may be shown once. The source made the active and inactive calls.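 The calls were made as follows: active = compounds giving half or more protection of infected cells from virus-caused growth loss, again on retest; inactive = the rest.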 Where a SMILES comes first, the peptide text is derived from it. [ ]: non-standard residue; d: D form. The star is where a group is joined. ξ: configuration not given here. NMeF = CN[CH](Cc1ccccc1)C(=O)O; ξNMe2Val = CC(C)C(C(=O)*)N(C)C; NMeV = CN[CH](C(=O)O)C(C)C; OtBu = CC(C)(C)O*

Tested on: CEM cells HIV-1 protection, formazan growth assay
Experiment: NCI AIDS Antiviral Assay
Conditions: for IC50: measured here: growth of uninfected CEM cells
Summary of the method: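 Human CEM cells, uninfected and HIV-1-infected, exposed to five drug concentrations; growth measured by soluble formazan assay and scored as percent protection from infection, with protecting compounds retested.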

Structure (SMILES) | EC50 [µM] | IC50 | outcome
CCOC(=O)/C(=C/c1ccc(OCc2ccccc2)cc1)P(=O)(OCC)OCC | > 44.7 | 4.27 µM | 
Cc1cccc2c1N(C(=O)/C=C\C(=O)O)C(c1c(C)[nH]c3ccccc13)C2 (stereo not drawn) | > 138 | 75.9 µM | 
c1ccc(COc2cccc3cccnc23)cc1 | > 251 | 110 µM | 
N#C/C(=C\c1c[nH]c2ccccc12)C(=O)c1ccc(O)c(O)c1 | > 85.1 | 46.8 µM | 
CCCCNC(=O)/C(=C/c1cccc(N(CC)CC)c1)NC(=O)c1ccccc1 | > 200 | 25.1 µM | 
O=c1c2cc([N+](=O)[O-])cnc2sn1-c1ccc(Oc2ccccc2)cc1 | 37.2 | 43.7 µM | 
Cc1cccc(N=NC(=O)NNc2cccc(C)c2C)c1C | > 200 | 70.8 µM | 
COC(=O)C1=CC(=O)OC1(OO)c1ccccc1 (stereo not drawn) | > 200 | 45.7 µM | 
CCCCCCCCCCNCCSSCc1ccccc1 | > 200 | 8.91 µM | 
Cc1ccc([P+](Cc2ccccc2)(c2ccccc2)c2ccccc2)cc1 | > 200 | 1.1 µM | 
CCOC(=O)C1CC2OC2CC1C(=O)OCC (stereo not drawn) | > 200 | > 200 µM | 
COC(=O)c1ccc(-c2nc(C#N)c(N)o2)cc1 | > 200 | > 200 µM | 
O=c1c(SSc2coc3cc(F)ccc3c2=O)coc2cc(F)ccc12 | > 200 | 2.75 µM | 
Cc1ccc(S(=O)(=O)c2[nH]cc(/C(=C\C3CCCCC3)[N+](=O)[O-])c2C2CCCCC2)cc1 | > 2 | 1.15 µM | 
CSc1ccc(/C=C/c2ccnc3ccccc23)cc1 | > 13.5 | > 13.5 µM | 
NC(=O)C(=CNC(=S)c1ccncc1)C(N)=O | > 200 | > 200 µM | 
C=C1CC2CC(O)CC(C1)C2 (stereo not drawn) |  |  | inactive
CC1(C)OC2[C@@H](CO[C@@]3([C@H]4OC(C)(C)O[C@@H]4CO)OC(C)(C)O[C@@H]23)O1 (stereo partly drawn) | > 200 | > 200 µM | 
CCOC(=O)C(=O)/C(=C/n1c(=S)[nH]c2cc(C)ccc21)C(=O)OCC | > 200 | > 200 µM | 
CC(C)(C)OC(=O)c1ccc(NCc2cc(O)ccc2O)cc1 | > 200 | 3.16 µM | 
CC(CN(C)C)OC(=O)c1cc2ccccc2[nH]1 (stereo not drawn) | > 200 | > 200 µM | 
Cc1cc(N(CCC#N)CCC#N)ccc1/C=C1/CN(N2C(=O)/C(=C/c3ccc(N(CCC#N)CCC#N)cc3C)N=C2c2ccccc2)C(c2ccccc2)=N1 | > 5.01 | > 5.01 µM | 
CCOC(=O)OC1(c2ccccc2)CCN(C)CC1 | > 200 | > 200 µM | 

Structure (SMILES) | EC50 [µM] | IC50 | outcome
COC(=O)C1=C(C(=O)OC)SC(=CC#CC=C2SC(C(=O)OC)=C(C(=O)OC)S2)S1 | > 5.62 | > 5.62 µM | 
N#Cc1cc2c(n(NS(=O)(=O)c3ccccc3)c1=O)CCCC2 | > 200 | > 200 µM | 
CC1=NN(C(=O)Cc2ccccc2)C(=O)/C1=C\c1ccc([N+](=O)[O-])cc1 | > 53.7 | > 53.7 µM | 
O=C1CCCC/C1=C/C=C/c1ccccc1 | > 64.6 | > 64.6 µM | 
CCOC(=O)C(=CNC(=S)Nc1ccc(Cl)c(Cl)c1)C(=O)OCC | > 200 | 34.7 µM | 
COC(=O)[C@H](Cc1ccccc1)NC(=O)N(CCC#N)CCN(C(=O)N[C@@H](Cc1ccccc1)C(=O)OC)c1ccccc1 | > 200 | 29.5 µM | 
C=CCCCn1ccc2ccccc21 |  |  | inactive
O=C(O)Cc1ccc(N2N=C(c3ccccc3)CC2=O)cc1 | > 200 | > 200 µM | 
Cc1c2ccc(Cl)cc2nc2ccc(OCCCCCCNC(=O)[C@@H](N)CCCN=C(N)N)cc12 | > 100 | 15.5 µM | 
CC(C)C(C(=O)N(C)C(Cc1ccccc1)C(=O)N(C)C(C(=O)N(C)C(C(=O)N1CCCC1C(=O)OC(C)(C)C)C(C)C)C(C)C)N(C)C (stereo not drawn) (ξNMe2Val-[NMeF][NMeV][NMeV]P-OtBu; configuration not given here) | 24.5 | 110 µM | 
CCOC1=C2C(C)(CCC3[C@@]4(C)C=CC(=O)C(C)(C)C4CC(O)[C@@]23C)C(c2ccoc2)C1=O (stereo partly drawn) | > 79.4 | 17.8 µM | 
CC(C)C(NC(=O)C(Cc1ccccc1)NC(=O)[C@H]1CCC[C@H]1NC(=O)C(N)Cc1ccc(O)cc1)C(N)=O (stereo partly drawn) |  |  | inactive
CN(C)c1ccc(/C=C(\NC(=O)c2ccccc2)C(=O)Nc2ccccc2C(=O)N/N=C/c2ccc(N(C)C)cc2)cc1 | > 25.1 | > 25.1 µM | 
C=C(COC(=O)C(C)C)[C@H]1Oc2ccc(C(C)=O)cc2[C@@H]1OC(=O)C(C)C | > 200 | > 200 µM | 
O=C(Nc1c(Cl)cc([N+](=O)[O-])cc1Cl)C(=O)C1C(=O)NC(=S)NC1=O | > 89.1 | > 89.1 µM | 
CCOC(=O)N/N=C/c1cccs1 | > 200 | > 200 µM | 
CC(C)N(C(=O)C12C3C4C5C3C1(C#N)C5C42)C(C)C (stereo not drawn) | > 195 | > 195 µM | 
Cc1cc(=O)oc2c1c(C)nn2-c1cccc(Cl)c1 | > 95.5 | 89.1 µM | 
CCCCCCCCCCCCCCCC(=O)OCCOCCOCCOCc1ccccc1 |  |  | inactive
O=S(Cc1ccccc1)c1ccccc1Cn1cccc1 (stereo not drawn) | > 200 | 158 µM | 
CC1(CCCO)CCCCCC(C)(CCCO)C1=O (stereo not drawn) | > 200 | 97.7 µM | 
CN1C2C=CC(=O)C1C(C#N)C2 (stereo not drawn) | > 200 | 34.7 µM and 115 µM | 
CCOC(=O)C(=O)NC12CC3CC(CC(C3)C1)C2 | > 724 | > 724 µM | 

Structure (SMILES) | EC50 [µM] | IC50 | outcome
O=C1CCC2CCOc3ccc(O)c1c32 (stereo not drawn) |  |  | inactive
CCOC(=O)C1=C(Nc2ccc(Cl)c(Cl)c2)OC/C1=N\NC(=O)Cc1ccccc1 | > 100 | > 100 µM | 
C=CC1(CC)/C(=N\O)C(CC)(CC)C(=O)N1O (stereo not drawn) | > 1050 | > 1050 µM | 
CC12OC3(C)c4ccccc4OP3(c3ccccc3)(Oc3ccccc31)O2 (stereo not drawn) | > 79.4 | > 79.4 µM | 
CCCCCCCCCCCc1c2oc3ccc(C)cc3[nH]c-2cc(=O)c1=O | > 4.68 | > 4.68 µM | 
OCCN1CC2CCCC1O2 (stereo not drawn) | > 1580 | > 1580 µM | 
O=[N+]([O-])c1cc2c(c([N+](=O)[O-])c1)NCc1ccccc1O2 | > 200 | > 200 µM | 
Cn1c2ccccc2c2nnc(SCCN3CCOCC3)nc21 | > 200 | > 200 µM | 
CCOC(=O)n1[nH][nH]c2c(c(=O)n(C)c(=O)n2C)n1C(=O)OCC | > 200 | > 200 µM | 
Nc1ccc(S(=O)(=O)NCCSSCCNS(=O)(=O)c2ccc(N)cc2)cc1 | > 200 | 45.7 µM | 
CC1(C)COC2(OC1)C1=NS(=O)(=O)CC13CCC2C3(C)C (stereo not drawn) | > 57.5 | > 57.5 µM | 
CCOC(=O)C(C)c1c(C(=O)c2ccc(C)nc2)c2ccccc2n1C (stereo not drawn) |  |  | inactive
O=c1[nH]c2ccccc2c(=O)n1/N=C/c1ccc(Cl)cc1 | > 200 | > 200 µM | 
COc1ccccc1NC(=O)CC(=O)NN | > 200 | > 200 µM | 
CCOC(=O)/C(=C\c1cccc(C#N)c1)[Se]c1ccccc1 | > 52.5 | > 52.5 µM | 
CC1=NN(C(=O)Cc2ccccc2)C(=O)/C1=C\c1cccc(O)c1 | > 22.4 | > 22.4 µM | 
CCOC(=O)/C=C/c1ccc(C#N)cc1 |  |  | inactive
S=c1[nH]c(=S)c2nnn(-c3ccccc3)c2[nH]1 | > 138 | 126 µM | 
Clc1ccc(-c2onc3ccc(Br)cc23)cc1 | > 162 | > 162 µM | 
Cc1noc(NS(=O)(=O)c2ccc(NC(=O)c3ccccc3SC(=O)CCCC[n+]3ccccc3)cc2)c1C | 24 | 53.7 µM | 
O=c1[nH]c2cc(Cl)ccc2n1C1CCN(CCCC(c2ccc(F)cc2)c2ccc(F)cc2)CC1 | > 200 | 18.6 µM | 
NC1=Nc2ccccc2Sc2ccccc21 | > 60.3 | > 60.3 µM | 
Cc1cc(=O)n(-c2ccccc2)c(=S)n1-c1nc2ccccc2[nH]1 | > 107 | 63.1 µM | 

Structure (SMILES) | EC50 [µM] | IC50 | outcome
c1ccc(OCC2CO2)c(OCC2CO2)c1 (stereo not drawn) | > 1120 | 3.98 µM | 
CC(=O)OC1C(O[C@H]2CC[C@]34O[C@]35CC[C@]3(C)C(C6(C)CC[C@@H](C(C)(C)O)O6)[C@@H](O)CC3(C)[C@@H]5CC(OC3OC(CO)C(O)C(O)C3O)C4C2(C)C)OCC(O)C1O (stereo partly drawn) | 67.6 | 302 µM | 
Nc1ncc(N)c(NCC2(CO)CC(CCc3ccccc3)C2)n1 (stereo not drawn) | > 200 | 4.9 µM | 
COC(=O)[C@@]12CC(C(C)C)[C@H]3CC(C(=O)C=C1OC)[C@H]32 (stereo partly drawn) |  |  | inactive
CC1(C)C(=O)C(C)(C)C1=NN | > 83.2 | > 83.2 µM | 
NNC(=S)NN/C=C(\C=Nc1ccccc1)[N+](=O)[O-] | > 178 | 155 µM | 
COc1cccc(/C=N/[N-]C(=O)c2ccncc2)c1[O-].[Mn+2].[OH3+] | > 39.8 | 6.61 µM | 
CC1CC(=O)C(C(O)CC2CC(=O)N(c3ccccc3)C(=O)C2)C(C)C1 (stereo not drawn) | > 200 | > 200 µM | 
CC(C)CCCC(C)C1CCC2C3CC([N+](=O)[O-])=C4CC(O)CCC4(C)C3CCC12C (stereo not drawn) | > 575 | 251 µM | 
CC1=C[C@H]2O[C@@H]3[C@H](O)[C@@H](O)[C@](C)(C2(COC(=O)CCl)CC1)[C@@]31CO1 (stereo partly drawn) | > 6.92 | 0.0178 µM | 
CC(=O)Oc1ccc2c3c4nc5ccccc5nc4cc(OC(C)=O)c3n(C)c2c1 | > 5.01 | > 5.01 µM | 
O=C(O)CCNC(=O)c1ccccc1SC(=O)CCCC[n+]1ccccc1 | 21.9 | > 200 µM | 
c1ccc(N=C(N2CCOCC2)N(CCN2CCOCC2)c2ccccc2)cc1 | > 200 | 182 µM | 
O=C(NCCCNC(=O)c1ccccc1O)c1ccccc1O | > 200 | 69.2 µM | 
CN(C)CCNc1ncnc2nc(-c3ccc4ccccc4c3)[nH]c12 | > 200 | > 200 µM | 
BrC1=CC=C2NC=CC3=CC=NC1C32 (stereo not drawn) |  |  | inactive
CC1(C)C2CCC(CN)(C2)C1O (stereo not drawn) | > 200 | > 200 µM | 
COc1ccc(/C=N\N2C(=O)Cc3ccccc32)cc1 | > 37.2 | > 37.2 µM | 
O=C1CCCCC/C1=C\c1ccc(F)cc1 | > 200 | 61.7 µM | 
Cn1c2cccc3nnc4cccc(c4c32)n1C |  |  | inactive
